Assay results published in patent publication US11472816B2, “Mcl-1 inhibitors and methods of use thereof” (AstraZeneca AB, priority 2016, dated 2022).

Legend:
MV-4-11 tumor = assay: In vivo efficacy in MV-4-11 human acute myeloid leukemia subcutaneous tumor model; set-up: species or system C.B-17 SCID female mice
Protocol: Method: Example 2 was formulated in 30% 2-Hydroxypropyl-beta-cyclodextrin (HPBCD), pH 9 and dosed as a single intravenous (iv) administration in a volume of 5 ml/kg. 10^6 MV-4-11 tumor cells were injected subcutaneously in the right flank of C.B-17 SCID female mice in a volume of 0.1 mL. Tumor volumes (measured by caliper), animal body weight, and tumor conditions were recorded twice weekly for the duration of the study. Tumor volumes (measured by caliper) were calculated using the formula: length (mm)×width (mm)^2[…]. For efficacy studies, mice were randomized based on tumor volumes and growth inhibition was assessed by comparison of the differences in tumor volume between control and treated groups. Dosing began when mean tumor size reached approximately 230 mm^3.

NCI-H929 tumor = assay: In vivo combination efficacy in NCI-H929 human multiple myeloma subcutaneous tumor model; set-up: species or system C.B-17 SCID female mice; conditions: either agent alone (Example 2 30 mg/kg every other week; bortezomib 1 mg/kg weekly), NCI-H929 tumor bearing mice
Protocol: Method: Example 2 was formulated in 30% 2-Hydroxypropyl-beta-cyclodextrin (HPBCD), pH 9 and dosed as intravenously (iv) in a volume of 5 ml/kg. 5×10^6 MOLP-8 tumor cells or 10^7 NCI-H929 tumor cells were injected subcutaneously in the right flank of C.B-17 SCID female mice in a volume of 0.1 mL. Tumor volumes (measured by caliper) were calculated using the formula: length (mm)×width (mm)^2[…]. For efficacy studies, mice were randomized based on tumor volumes and growth inhibition was assessed by comparison of the differences in tumor volume between control and treated groups. Dosing began when mean tumor size reached approximately 160 mm^3 for MOLP-8 and approximately 230 mm^3 for NCI-H929.

Question: With `Cc1c2c(nn1C)CSCc1cc(n(C)n1)CSc1cc(c3ccccc3c1)OCCCc1c(C(=O)O)n(C)c3c-2c(Cl)ccc13` (atropisomer, axis not shown; (Ra)) [Example 2, (Ra)-(+)-17-chloro-5,13,14,22-tetramethyl-28-oxa-2,9-dithia-5,6,12,13,22-pentaazaheptacyclo[27.7.1.1^4,7.0^11,15.0^16,21.0^20,24.0^30,35]octatriaconta-1(37),4(38),6,11,14,16,18,20,23,29,31,33,35-tridecaene-23-carboxylic acid] as the compound, how does the “mice remaining tumor free” value (MV-4-11 tumor; once weekly iv 30 mg/kg, 16 days after initiation of therapy) read?
Answer: The value was 1 of 6.

Question: And the “mice remaining tumor free” value (MV-4-11 tumor; single iv dose of 100 mg/kg, 16 days after therapy)?
Answer: The value was 4 of the 6.

Question: And the “anti-tumor activity, agent alone” value (NCI-H929 tumor)?
Answer: The value was “no significant anti-tumor activity”.

Question: How did the “anti-tumor activity, agent alone” value (NCI-H929 tumor) turn out when `CC(C)C[C@H](NC(=O)[C@H](Cc1ccccc1)NC(=O)c1cnccn1)B(O)O` [bortezomib, reference compound] was run?
Answer: The value was “no significant anti-tumor activity”.
